Assay in all cases: NCI-60 cell line screen, 48 h
Assay [1] relates to HOP-92.
Assay [2] deals with TK-10.
In assay [3] the test system is OVCAR-5.
Assay [4] deals with HT-29.
The test system of assay [5] is PC-3.
Assay [6] deals with M14.
The subject of assay [7] is NCI-H522.
For assay [8], the system named is CCRF-CEM.
The test system of assay [9] is U-251.
For assay [10], the system named is UACC-257.
Assay [11] deals with SF-295.
The subject of assay [12] is SR.
For assay [13], the system named is RPMI-8226.
Assay [14] deals with CAKI-1.
Assay [15] concerns HOP-62.
The subject of assay [16] is COLO 205.
Assay [17] relates to HCC 2998.
Assay [18] concerns SN12C.

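Where inhibition never reached the appropriate level, the endpoint shown equals the highest concentration tested. Otherwise, values were interpolated linearly from a five-concentration, 48-hour dose response in 96-well plates. Abbreviation: GI50, concentration required for 50% inhibition of growth.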 The source made the active and inactive calls. Rule as the data show it: active = GI50 up to about 1.1 µM and inactive = higher. A value given as a limit tells only on which side of the number the result lay.

Turning to `COc1cc(C2C(Cl)C(=O)N2NC(=O)c2ccccc2O)cc(OC)c1OC` (configuration not stated), the GI50 in [1] is 5.66 µM (inactive); in assay [2], 8.51 µM (inactive); in assay [3], 5.96 µM (inactive); in assay [4], 2.75 µM (inactive); in assay [5] it was 3.52 µM (inactive); in [6], 6.31 µM (inactive). Moreover, the GI50 in [7] is 2.87 µM (inactive); in assay [8], 1.65 µM (inactive); in assay [9], 3.54 µM (inactive); in [10], 1.89 µM (inactive); in assay [11], 1.8 µM (inactive); in assay [12], 2.98 µM (inactive).

As to `O=C1/C(=C/c2ccc([N+](=O)[O-])cc2)Oc2cc(O)ccc21`, the GI50 in assay [13] was 22.5 µM (inactive); in assay [14], 23.6 µM (inactive); in [2], 27.4 µM (inactive); in assay [15] it was 31.2 µM (inactive); in assay [16] it was > 10 µM (inactive); in assay [17] it was 34.6 µM (inactive). For the same compound, the GI50 in assay [5] is 29.3 µM (inactive); in [6] it was 43.1 µM (inactive); in assay [7], 24.8 µM (inactive); in assay [8], 31 µM (inactive); in [9], 28.1 µM (inactive); in assay [10] it was 37.7 µM (inactive). In addition, the GI50 is 26.6 µM (inactive) in assay [18], 37.8 µM (inactive) in [11] and 16.9 µM (inactive) in assay [12].

As to `COc1cc(C2C3=C(COC3=O)Oc3cc4c(cc32)OCO4)cc(OC)c1O` (configuration not stated), the GI50 in assay [13] was < 0.0232 µM (active); in [14], < 0.01 µM (active); in assay [2] it was 0.589 µM (active); in [15], < 0.0135 µM (active); in assay [16], < 0.0133 µM (active); in assay [3], 0.0236 µM (active). Besides, the GI50 in assay [4] was < 0.0147 µM (active); in [17], < 0.0209 µM (active); in assay [5], < 0.01 µM (active); in assay [6], < 0.0112 µM (active); in assay [7] it was < 0.01 µM (active); in assay [8] it was 0.0134 µM (active). The GI50 was < 0.0134 µM (active) in [9], 0.0364 µM (active) in assay [18], < 0.01 µM (active) in assay [11] and < 0.01 µM (active) in assay [12].

Turning to `Cc1cc(S(=O)(=O)[N-]/C(=N/S(=O)(=O)c2cc(Cl)sc2Cl)[n+]2ccc(N(C)C)cc2)c(S)cc1Cl`, the GI50 is 47.5 µM (inactive) in assay [13]; 60.3 µM (inactive) in assay [14]; 49.7 µM (inactive) in assay [2]; 42.3 µM (inactive) in assay [15]; 49.3 µM (inactive) in [3]; 30.6 µM (inactive) in assay [4]. The GI50 is 60.7 µM (inactive) in assay [17]; 53.8 µM (inactive) in assay [5]; 30.3 µM (inactive) in assay [6]; 25.4 µM (inactive) in assay [7]; 64 µM (inactive) in assay [8]; 45.2 µM (inactive) in assay [9]. Also, the GI50 in assay [10] is > 100 µM (inactive); in [11], 47.9 µM (inactive); in assay [12], 39.4 µM (inactive).

For `CC1(c2ccc(F)cc2)CC(c2ccc(F)cc2)=C(C#N)C(=C(C#N)C#N)N1` (configuration not stated), the GI50 in assay [13] is 5.55 µM (inactive); in assay [1], 12.6 µM (inactive); in assay [14], 16 µM (inactive); in assay [2], 18.1 µM (inactive); in [15] it was 19.7 µM (inactive); in assay [16], 5.56 µM (inactive). For the same compound, the GI50 was 19.8 µM (inactive) in assay [3]; 15.4 µM (inactive) in assay [4]; 14.5 µM (inactive) in [17]; 16.3 µM (inactive) in assay [5]; 18.7 µM (inactive) in [6]; 2.11 µM (inactive) in assay [8]. For the same compound, the GI50 in [9] is 16.6 µM (inactive); in assay [10], 15.3 µM (inactive); in assay [18] it was 16.7 µM (inactive); in assay [11], 16.9 µM (inactive); in assay [12], 14.9 µM (inactive).

On to `O=C(O)c1cc(CC2Cc3cc4c(cc3C2=O)CCC4)cc2c1CCC2` (configuration not stated), for which the GI50 was 70.8 µM (inactive) in assay [13]; > 100 µM (inactive) in assay [14]; > 100 µM (inactive) in [2]; > 100 µM (inactive) in assay [15]; > 100 µM (inactive) in [16]; > 100 µM (inactive) in [3]. Besides, the GI50 in [4] was > 100 µM (inactive); in assay [17], > 100 µM (inactive); in [5], 46.6 µM (inactive); in assay [6] it was > 100 µM (inactive); in assay [7], 90.2 µM (inactive); in assay [8], 59.3 µM (inactive). In addition, the GI50 in [9] is 82.2 µM (inactive); in [10], > 100 µM (inactive); in [18], > 100 µM (inactive); in [11], > 100 µM (inactive); in assay [12] it was 67.1 µM (inactive).

For the compound `CC(C)(C)c1cc(C(C)(C)C)c(SSc2c(C(C)(C)C)cc(C(C)(C)C)c(O)c2O)c(O)c1O`, the GI50 was 9.29 µM (inactive) in [13]; 17.7 µM (inactive) in assay [1]; 11.5 µM (inactive) in assay [14]; 11.5 µM (inactive) in [16]; 15.8 µM (inactive) in [3]; 13.2 µM (inactive) in assay [4]. The GI50 in assay [5] is 12.4 µM (inactive); in [6] it was 11.7 µM (inactive); in assay [7], 3.92 µM (inactive); in assay [8] it was 2.5 µM (inactive); in assay [9], 10.5 µM (inactive); in [10], 9.95 µM (inactive). Further, the GI50 in assay [18] was 10.9 µM (inactive); in [12], 2.94 µM (inactive).

For the compound `CC1(C)/C(=N\NC(N)=O)C2CCC1C2` (configuration not stated), the GI50 in assay [13], in assay [1], in assay [14], in assay [2], in [15] and in [16] was > 100 µM (inactive) each time. Besides, the GI50 in assay [3], in assay [4], in assay [5], in assay [6], in [7] and in [8] was > 100 µM (inactive) in each case. The GI50 in assay [9], in [10], in assay [11] and in [12] was > 100 µM (inactive) in each case.

On to `COc1cc(C2c3cc4c(cc3C(=O)C3CCC(=O)N32)OCO4)cc(OC)c1O` (configuration not stated), for which the GI50 in assay [13], in assay [1], in [15], in [16], in assay [3] and in [4] was > 50 µM (inactive) throughout. The GI50 in assay [5], in assay [6], in assay [8], in assay [9], in [10] and in assay [18] was > 50 µM (inactive) throughout. Further, the GI50 in assay [11] and in assay [12] was > 50 µM (inactive) in each case.

On to `O=C(Nc1ccc(N=C=S)cc1Cl)c1cc(Br)cc(Br)c1O`, for which the GI50 in assay [1] was 14.1 µM (inactive); in assay [14] it was 43.1 µM (inactive); in [2], 27.9 µM (inactive); in assay [15], 30.6 µM (inactive); in assay [16], 27.2 µM (inactive); in assay [3] it was 23.7 µM (inactive). The GI50 in assay [4] was 19.8 µM (inactive); in [5] it was 19 µM (inactive); in [6] it was 33.7 µM (inactive); in assay [7], 31.3 µM (inactive); in assay [9], 22.2 µM (inactive); in [10] it was 21.4 µM (inactive). For the same compound, the GI50 in [18] is < 0.01 µM (active); in [11], 31.1 µM (inactive); in assay [12], 28.6 µM (inactive).

Take `CCOC(=O)C1(C(=O)OCC)C[C@@H](C)[C@@H](O)C1`: the GI50 in assay [13], in [1], in assay [14], in assay [2], in assay [15] and in assay [16] was > 100 µM (inactive) throughout. Besides, the GI50 in [3], in assay [4], in [5], in [6], in assay [7] and in assay [8] was > 100 µM (inactive) in each case. The GI50 in [9], in assay [10], in assay [18], in [11] and in assay [12] was > 100 µM (inactive) in each case.

`CC(=O)OCC1OC(n2c(C)c(/N=N/c3ccc(Cl)cc3)c(C)c(C#N)c2=S)C(OC(C)=O)C(OC(C)=O)C1OC(C)=O` (configuration not stated): the GI50 was > 100 µM (inactive) in assay [13]; 0.205 µM (active) in assay [1]; 50.8 µM (inactive) in [14]; 40.5 µM (inactive) in [2]; 22.8 µM (inactive) in assay [15]; > 100 µM (inactive) in [16]. Besides, the GI50 is 31.8 µM (inactive) in assay [3]; > 100 µM (inactive) in assay [4]; > 100 µM (inactive) in assay [17]; > 100 µM (inactive) in assay [5]; > 100 µM (inactive) in assay [6]; > 100 µM (inactive) in [8]. Moreover, the GI50 is 28.1 µM (inactive) in [9]; 62.8 µM (inactive) in assay [10]; > 100 µM (inactive) in assay [18]; 25.1 µM (inactive) in assay [11]; > 100 µM (inactive) in assay [12].

On to `Cc1ccc2c(=O)[nH]sc2c1`, for which the GI50 is 5.31 µM (inactive) in [13]; 5.4 µM (inactive) in assay [14]; 18.4 µM (inactive) in [2]; 19.5 µM (inactive) in assay [15]; 3.82 µM (inactive) in [16]; 94 µM (inactive) in [3]. Also, the GI50 is 16.7 µM (inactive) in [4]; 21.2 µM (inactive) in [17]; 15.7 µM (inactive) in assay [5]; 11.7 µM (inactive) in [6]; 2.38 µM (inactive) in [7]; 3.26 µM (inactive) in [8]. Also, the GI50 is 14.8 µM (inactive) in [9]; 18.4 µM (inactive) in assay [10]; 7.83 µM (inactive) in assay [18]; 54.5 µM (inactive) in assay [11]; 3.69 µM (inactive) in [12].

These data come from ChEMBL document CHEMBL1201862, “PubChem BioAssay data set” (2004).
